Source: patent US20250250545A1, “MSCS AND EXTRACELLULAR VESICLES” (EXOSTEM BIOTEC LTD., priority 2021, published 2025)

Tested on: AD-MSCs
Assay: MyoD reporter (luciferase) in AD-MSCs, myogenic differentiation
Assay type: cell-based, human
Details: 10^8 EVs per ml, with or without IGF, HGF, PDGF, versus untreated control
Experimental: The effects of muscle cell derived extracellular vesicles (EVs) on the myogenic differentiation of MSCs was analyzed using a myoD reporter tagged to luciferase. Human satellite cells, myotubes and fibroblasts were grown in culture and EVs were isolated from each. MSCs were isolated from adipose tissue (AD-MSCs) and were transfected with the MyoD reporter. The cells grown in culture were treated with EVs (10^8/ml) for 5 days and the luciferase activity was determined. […] Thus, the vesicles from these two cell types are effective at inducing myogenic differentiation.
Next, EVs were compared to the use of growth factors and the effect of combining EVs with growth factors on myogenic differentiation was tested. The same MyoD reporter was employed and MSCs were cultured with 10^8 EVs (from satellite cells or fibroblasts) per ml of culture media. A no EV control was also performed. The EVs were also added in the presence of three different growth factors, IGF, HGF and PDGF or in the combined presence of all three growth factors. […]
Finally, human primary myotubes were growth in culture and EVs and membrane-bound vesicles (MBVs) were harvested every 3 days. […] The vesicles were added to the culture of MSCs (adipose derived, AD; or chorionic placenta derived, CH) at a concentration of 10^8 per ml of culture and myogenic differentiation was again monitored with a MyoD reporter. […]

| Substance | MyoD reporter activity |
| --- | --- |
| HGF: hepatocyte growth factor | less than a doubling of reporter activity |
| PDGF | less than a doubling of reporter activity |
